Like-named read-outs stand apart in the source and are kept apart here. No end group written: not given here.

Consider 5 molecules from patent US8568736B2, “Polypeptide derivatives of parathyroid hormone (PTH)” (The General Hospital Corporation, priority 1999, dated 2013).

The target of test [1] is T1, human PTH-1 receptor (endogenous, SAOS-2 cells) (Homo sapiens, UniProt Q03431).
T1 construct: the human osteoblastic cell line, SAOS-2, express endogenous PTH-1 receptors; endogenous in cells; host or cells: SAOS-2 human osteoblastic cells
T1 sequence (Q03431 27-593): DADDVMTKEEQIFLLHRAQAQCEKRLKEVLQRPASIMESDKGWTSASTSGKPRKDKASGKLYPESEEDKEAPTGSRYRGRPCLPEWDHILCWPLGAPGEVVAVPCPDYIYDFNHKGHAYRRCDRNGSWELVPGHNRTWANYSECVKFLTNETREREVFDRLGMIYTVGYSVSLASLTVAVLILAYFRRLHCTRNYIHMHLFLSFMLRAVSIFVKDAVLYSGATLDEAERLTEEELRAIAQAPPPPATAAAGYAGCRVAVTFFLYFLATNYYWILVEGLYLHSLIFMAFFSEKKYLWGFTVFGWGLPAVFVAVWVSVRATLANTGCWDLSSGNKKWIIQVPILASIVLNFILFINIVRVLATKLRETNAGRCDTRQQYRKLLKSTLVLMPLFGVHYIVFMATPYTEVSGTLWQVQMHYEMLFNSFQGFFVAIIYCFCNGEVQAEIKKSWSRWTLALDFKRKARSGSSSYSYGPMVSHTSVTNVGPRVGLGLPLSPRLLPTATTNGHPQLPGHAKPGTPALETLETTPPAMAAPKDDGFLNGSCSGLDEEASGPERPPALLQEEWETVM
As to the kind of experiment: cAMP response in osteoblastic SAOS-2 cells. In kind it is cell-based. The method, then: The rat osteoblastic cell line ROS 17/2.8 (Majeska, R. J., et al, Endocrinology 107:1494-1503 (1980)) expresses endogenous PTH-1 receptors at levels of 80,000 per cell and the human osteoblastic cell line, SAOS-2, express endogenous PTH-1 receptors at levels of ˜30,000 per cell.
(§1) Stimulation of cells with peptide analogs was performed in 24-well plates. Cells were rinsed with 0.5 mL of binding buffer and treated with 200 μL of cAMP assay buffer (Dulbecco's modified Eagle's medium containing 2 mM 3-isobutyl-1-methylxanthine, 1 mg/mL bovine serum albumin, 35 mM Hepes-NaOH, pH 7.4) and 100 μL of binding buffer containing varying amounts of peptide analog (final volume=300 μL). The medium was removed after incubation for 1 h at room temperature, and the cells were frozen (−80° C.), lysed with 0.5 mL 50 mM HCl, and refrozen (−80° C.). The cAMP content of the diluted lysate was determined by radioimmunoassay. Where possible, cAMP EC50 and Maximum response values were determined using nonlinear regression (see below).
All calculations were performed using Microsoft Excel. Nonlinear regression analysis of cAMP stimulation data was performed using parameters, defined as the Minimum, Maximum, Emax, midpoint (EC50), and slope of the response curve. The predicted response (yp) for a given dose (x) of peptide was calculated using the following equation: yp=Min+[(Max−Min)/(1+(EC50/x)^slope)]. The initial parameter values were estimated from the primary data, and the Excel “Solver function” was then used to vary the four parameters in order to minimize the differences between the predicted and actual responses (least-squares method) (Bowen, W., & Jerman, J., Trends in Pharmacol. Sci. 16:413-417 (1995)). The statistical significance between two data sets was determined using a one-tailed Student's t-test, assuming unequal variances for the two sets.

The target in test [2] is T2, PTH-1 receptor (Homo sapiens, UniProt Q03431).
T2 sequence (Q03431 27-593): T1 sequence (Q03431 27-593)
The test can be described thus: cAMP stimulation in HKRK-B7 cells (LLC-PK1 stably transfected with hPTH-1 receptor). As to conditions: for Emax: Emax constrained to ±1 SD of rPTH(1-34) response at 100 nM; for fold more potent than native PTH(1-14): LLC-PK1 cells stably expressing hPTH-1 receptor. Details: expressed in transfected cells; host or cells: LLC-PK1 porcine kidney cells, clone HKRK-B7. In kind it is cell-based.
From the text: Stably transfected derivatives of the porcine kidney cell line LLC-PK1, HKRK-B7 (Takasu, H., et al., J. Bone Miner. Res. 14:11-20 (1999)) and hPR2-20, express the human PTH-1 and human PTH-2 receptors respectively. The HKRK-B7 LLC-PK1 cell line expresses the hPTH-1 receptor at ˜1×10^6 receptors/cell (Takasu, H., et al., J. Bone Miner. Res. 14:11-20 (1999)), and the hPR2-22 LLC-PK1 cell line expresses the hPTH-2 receptor at ˜0.8×10^6 receptors/cell (provided by H. Takasu and F. R. Bringhurst, Endocrine Unit, Massachusetts General Hospital).
as §1
Intracellular cAMP accumulation may be measured as described by Abou-Samra et al., J. Biol. Chem. 262:1129, 1986) or other methods known to those of skill in the art. Intracellular cAMP is extracted by thawing the cells in 1 ml of 50 mM HCl and analyzed by a specific radioimmunoassay using an anti-cAMP antibody (e.g., Sigma, St. Louis, Mo.). A cAMP analog (2′-O-monosuccinyl-adenosine 3′:5′-cyclic monophosphate tyrosyl methyl ester, obtained from Sigma) which is used as a tracer for cAMP is iodinated by the chloramine T method. Free iodine is removed by adsorbing the iodinated cAMP analog onto a C18 Sep-pak cartridge (Waters, Milford, Mass.). After washing with dH2O, the iodinated cAMP analog is eluted from the Sep-pak Cartridge with 40% acetonitrille (ACN) and 0.1% trifluoroacetic acid (TFA). The iodinated cAMP analog is lyophilized, reconstituted in 1 ml 0.1% TFA, and injected into a C18 reverse phase HPLC column (Waters). The column is equilibrated with 10% ACN in 0.1% TFA, and eluted with gradient of 10-30% ACN in 0.1% TFA. This allows separation of the mono-iodinated cAMP analog from the non-iodinated cAMP analog. The tracer is stable for up to 4 months when stored at −20° C. The standard used for the assay, adenosine 3′:5′-cyclic monophosphate, is purchased from Sigma. Samples (1-10 µl of HCl extracts) or standards (0.04-100 fmol/tube) are diluted in 50 mM Na-acetate (pH 5.5), and acetylated with 10 μl of mixture of triethylamine and acetic anhydride (2:1 vol:vol). After acetylation, cAMP antiserum (100 μl) is added from a stock solution (1:4000) made in PBS (pH 7.4), 5 mM EDTA and 1% normal rabbit serum. The tracer is diluted in PBS (pH 7.4) with 0.1% BSA, and added (20,000 cpm/tube). The assay is incubated at 4° C. overnight. The bound tracer is precipitated by adding 100 μl of goat anti-rabbit antiserum (1:20 in PBS) and 1 ml of 7% polyethyleneglycol (MW 5000-6000), centrifuging at 2000 rpm for 30 min. at 4° C. The supernatant is removed and the bound radioactivity is counted in a gamma-counter (Micromedic). To compute the cAMP data, logit calculations were performed in Excel spreadsheets. Typically, the assay sensitivity is 0.1 fmol/tube, and the standard concentration that displaces 50% of tracer is 5 fmol/tube.
All calculations were performed using Microsoft Excel. Nonlinear regression analysis of cAMP stimulation data was performed using parameters, defined as the Minimum, Maximum, Emax, midpoint (EC50), and slope of the response curve. The predicted response (yp) for a given dose (x) of peptide was calculated using the following equation: yp=Min+[(Max−Min)/(1+(EC50/x)^slope)]. […]

For the molecule `CCCC[C@H](NC(=O)[C@H](CCCNC(=N)N)NC(=O)[C@H](CCC(=O)O)NC(=O)[C@@H](NC(=O)[C@H](CO)NC(=O)[C@H](C)NC(=O)[C@H](CC(C)C)NC(=O)[C@H](Cc1c[nH]cn1)NC(=O)[C@H](CCCCN)NC(=O)CNC(=O)[C@H](CC(C)C)NC(=O)[C@H](CC(N)=O)NC(=O)[C@H](Cc1c[nH]cn1)NC(=O)[C@H](CCCC)NC(=O)[C@H](CC(C)C)NC(=O)[C@H](CCC(N)=O)NC(=O)[C@@H](NC(=O)[C@H](CCC(=O)O)NC(=O)[C@H](CO)NC(=O)[C@@H](NC(=O)[C@H](C)N)C(C)C)[C@@H](C)CC)C(C)C)C(=O)N[C@@H](CCC(N)=O)C(=O)N[C@@H](Cc1c[nH]c2ccccc12)C(=O)N[C@@H](CC(C)C)C(=O)N[C@@H](CCCNC(=N)N)C(=O)N[C@@H](CCCCN)C(=O)N[C@@H](CCCCN)C(=O)N[C@@H](CC(C)C)C(=O)N[C@@H](CCC(N)=O)C(=O)N[C@@H](CC(=O)O)C(=O)N[C@H](C(=O)N[C@@H](Cc1c[nH]cn1)C(=O)N[C@@H](CC(N)=O)C(=O)N[C@@H](Cc1ccc(O)cc1)C(N)=O)C(C)C` [[Nle8, 21, Y34]rPTH(1-34), [Nle^8,21,Tyr^34]-rPTH(1-34)NH2, reference compound], in test [1], it took 0.178 nM to reach a half-maximal effect (EC50). Further, the results for the Emax in test [1] (SAOS-2 cells) and in test [2] (HKRK-B7 cells) were 272 ± 33 picomole/well and 293 ± 29 picomole/well, respectively. Further, in test [2] (HKRK-B7 cells (hPTH-1 Receptor), cAMP, mean ± SEM), the “EC50 Log M” value is listed as −8.6 ± 0.1 Log M.

For the molecule “AVAEIQLMHAR-NH2 [compound 6, AlaValAlaGluIleGlnLeuMetHisAlaArg-amide]”, the Emax in test [1] (SAOS-2 cells) is recorded as 235 ± 7 picomole/well; in test [2] (HKRK-B7 cells) it was 248 ± 13 picomole/well. For the same molecule, in test [1] (SAOS-2 cells, cAMP, read-out: EC50 (converted)), the EC50 is 75900 nM. Moreover, the “cAMP signaling activity (in words)” value in test [2] (HKRK-B7 cells, dose-response) is on record as “signaling activity was readily observed”.

Turning to “AVAEIQLMHARAKH-NH2 [Peptide #1, AlaValAlaGluIleGlnLeuMetHisAlaArgAlaLysHis-amide]”, the Emax in test [1] (SAOS-2 cells) is on record as 331 picomole/well; in test [2] (HKRK-B7 cells), 264 ± 16 picomole/well. The “fold more potent than native PTH(1-14)” value in test [2] (cAMP) stood at 160 fold; in test [2] (cAMP, listed as [A^3, A^10, R^11, A^12]rPTH(1-14)amide), 100 fold.

“AVAEIQLMHARAKHLNSMERVEWLRKKLQDVHNY-NH2 [Peptide #7]” had an EC50 in test [1] of 0.112 nM. Further, the Emax is given as 272 ± 33 picomole/well in test [1] (SAOS-2 cells) and 244 picomole/well in test [2] (HKRK-B7 cells). Also, the “fold more potent than the two controls, rPTH(1-34) and hPTH(1-34)” value in test [2] (HKRK-B7 cells, cAMP) is given as “about 2 fold”.

In the case of “AVSEIQLMHNLGKH-NH2 [native rPTH(1-14), AVSEIQLMHNLGKH, reference compound]”, in test [1] (SAOS-2 cells, cAMP), the “EC50 Log M” value is “barely active”. In addition, the Emax in test [2] (HKRK-B7 cells) stood at 299 ± 27 picomole/well.

As a reminder, the EC50 is the concentration needed to bring the measured effect to its halfway point.
